This note sets out measurements from US5530157A, “Anti-inflammatory benzoic acid derivatives” (Scios Nova Inc., priority 1995, dated 1996).

Test [1] concerns neutrophils. The test can be described thus: Elastase release from neutrophils, fMLP. As to conditions: Homo sapiens, Neutrophil; fMLP 200 nM, cytochalasin b; read-out: IC50 to inhibit elastase release, fMLP/ER. In kind it is cell-based. The text has this:
(§1) Several in vitro assays were employed to determine the ability of compounds of the invention to function as anti-inflammatory agents. One group of assays measured the ability of the compounds to inhibit adherence of polymorphonuclear neutrophils to serum coated wells (in the presence of either TNF-α or PAF) or to human umbilical vein endothelial cells (in the presence of INF-γ). Another group of assays measured the ability of the compounds to inhibit the release of elastase or superoxide from activated neutrophils. These assays were performed in the following manner.
(§2) Elastase release. Neutrophils (5×10^6 /ml in HBSS) were preincubated for 5 min at 37° C. with cytochalasin b (5 μg/ml). Experiments were performed in microtubes (96 per rack) to which were added the cell suspension, test compound (50 nM-500 μM), and one of several activators (fMLP, 200 nM, C5a, 24 nM; PAF, 20nM). After incubation (30 min, 37° C.) the tubes were centrifuged (1 min, 1500 rpm) and the supernatants assayed for elastase activity according to the following protocol:
(§3) Specifically, 10 μl of purified human neutrophil elastase standard or of sample was added to 70 μl or 0.1M Tris pH 7.5, 0.5% Brij detergent and 10 μl or 5 mM elastase substrate (methoxysuccinyl-alanyl-alanyl-prolyl-valyl paranitroanilide) in a 96 well microliter plate. Plates were indubated for 60 min at 37° C. and absorbance was read at 410 nm on a microplate reader. Elastase activity was quantitated relative to standards.

Test [2] concerns human umbilical vein endothelial cells. The test can be described thus: INF-γ HUVEC assay: adherence of PMN to human umbilical vein endothelial cells. It counts as cell-based. As to conditions: HUVECs with INF-γ 1 unit/mL 20 hrs, PMN activated with 50 ng/mL TNF, read-out: IC50 to inhibit adhesion, IFN-γ HUVECS.
Description: as §1
(§4) Isolation of PMN: Blood was drawn into syringes containing heparin (1 U/mL), from human volunteers (free of any medication for at least 48 hrs). 30 mL of blood was layered over a gradient of 10 mL 1.077 g/mL Histpaque (Sigma, St. Louis, Mo.), and centrifuged at room temperature, 400×g for 20 min. All subsequent manipulations were carried out at room temperature, with endotoxin free reagents, and using polypropylene pipettes and tubes, to prevent activation of the PMN. The pinkish PMN layer immediately above the RBC was collected and washed 2× with Hank's buffered salt solution with calcium and magnesium, 0.2% glucose, and 10 mM HEPES, pH 7.2 (HBSS++) by centrifugation at 400×g for 10 min. Pellets were suspended in 8 mL 0.9% NaCl, and RBC lysed by the addition of 24 mL water for 40 sec, followed by the addition of 8 mL of 3.6% NaCl. After centrifugation at 200×g for 8 min, RBC ghosts were aspirated from the top of the PMN pellet, and cells washed with HBSS++. PMN adherence to protein substrates: 96 well tissue culture plates were coated with 10% pooled human serum (North American Biological,;, Miami, Fla.) in phosphate buffered saline (PBS) for 1 hr at 37° C., followed by washing 3× with PBS. Test compounds were prepared in DMSO as 100× stocks. PMN (4×10^6 /mL) were preincubated with test compounds for 10 min at 37° C. in serum-coated wells. Tumor necrosis factor (TNF-α) was added to 3 nM or platelet aggregation facor (PAF) to 1 μM, and adherence was carried out for 20 or 10 min, respectively. Nonadherent cells were aspirated, and wells washed two times with warm PBS with calcium and magnesium, with blotting of the inverted plate following each aspiration. Adherent PMN were quantitated using a BCA protein assay (Pierce, Rockford, Ill.).
INF-γHUVEC Assay. Primary human umbilical vein endothelial cells (HUVECs) from Clonetics Corp. (San Diego, Calif.) were seeded at 20,000 cells per wall in a 96 well tissue culture plate that was coated with fibronectin, for 45 min and then twice rinsed with phosphate buffered saline. To the culture media (M199, 80%; FBS, 20%; […] endothelial cell growth factor (Maciag et all, Proc. Natl. Acad. Sci. USA (1979) 76(11):5674-5678), 0.1 mg/mL heparin; 5% CO2; 37° C.) was added INF-γ (R&D Systems) at 1 unit/mL for 20 hrs. Isolated PMNs were loaded with the fluorescent dye BCECF AM (Molecular Probes) by incubating 1×10^7 cells/mL in HBSS with 4 μM dye for 30 min at 37° C. The PMNs were incubated with test compound for 10 min at 37° C., then activated with 50 ng/mL TNF and immediately added to the HUVECs which had been rinsed twice with HBSS+1% human serum. The co-culture plate was incubated at 37° C. for 20 min followed by gentle washing (twice) with HBSS+1% human serum. The extent of adherence was assessed by measuring the amount of fluorescence (485-535 nm filter) in each well with a fluorescence plate reader (Idexx).

Test [3] relates to neutrophils. The test can be described thus: Elastase release from neutrophils, PAF. In kind it is cell-based. To be noted: Homo sapiens, Neutrophil; PAF 20 nM, cytochalasin b; read-out: IC50 to inhibit elastase release, PAF/ER.
Description: as §1, §2, §3

Test [4] concerns neutrophil accumulation in thioglycollate-induced peritonitis. The test can be described thus: Neutrophil accumulation in thioglycollate-induced peritonitis in the mouse. It counts as in vivo, Male CF-1 mice. As to conditions: mouse, i.v., 4 hrs; for ED50: Neutrophil, iv, thioglycollate-induced peritonitis, read-out: ED50. The protocol:
(§5) Two in vivo models of inflammation were used to assess the anti-inflammatory activity of compounds of the invention. One model measures neutrophil accumulation in thioglycollate-induced peritonitis in mice. The other measures neutrophil accumulation in the cutaneous Reverse Passive Arthus reaction in rats. These assays were carried out as follows.
Male CF-1 mice were pretreated with individual test compound (4-6 mice per compound) 10 min prior to thioglycollate treatment. Test compounds at various doses, solubilized in 1% Tween, pH 9.0, were injected into the tail vein. Thioglycollate (4% Brewer's thioglycollate broth in water) was administered intraperitoneally in 1 ml volume. Peritoneal lavages, performed 4 hrs following thioglycollate treatment, involved injecting 5 ml of Dulbecco's phosphate buffered saline with 0.1% bovine serum albumin and 10 units/ml heparin into the peritoneal cavity, massaging the peritoneum, and then removing fluid through peritoneal aspiration. The lavage fluid was centrifuged, red blood cells lysed with water, cells were resuspended in Hank's balanced salt solution, and leukocytes were counted with a modified Neubauer hemacytometer. Leukocyte preparations (cytospin slides) were differentially stained with a Giemsa stain. Neutrophil accumulation expressed as a percent of control was calculated after the subtraction of baseline neutrophils from all treatement groups (see Table III).

The subject of test [5] is neutrophil accumulation in the cutaneous Reverse Passive Arthus reaction. The test can be described thus: Neutrophil accumulation in the cutaneous Reverse Passive Arthus reaction in rats. It counts as in vivo, Male Sprague Dawley rats. To be noted: rat, i.p.; for ED50: Neutrophil, ip, 4 h, Reverse Passive Arthus, read-out: ID50 (the source's name); for Reverse Passive Arthus % Inhibition: 1.4 mg/kg, n = 4. The protocol:
as §5
Male Sprague Dawley rats were treated with test compounds by intraperitoneal injection of 1.4 mg/kg in 1% Tween, pH 9.0 vehicle. After 1 hr, animals were lightly anesthetized with 2% isoflurane, v/v, injected by intravenous route with 1 ml of 5 mg/ml human serum albumin, immediately follwed by intracutaneous administration of 75 μl of a solution of 4 mg/ml of goat anti-human serum albumin. Animals were anesthetized 4 hrs after antigen-antibody treatment. Punch biopsies of the dorsal injection sites were performed with one biopsy weighed for wet/dry weight ratio determination. The remaining two skin biopsies were used for measuring myeloperoxidase content and were minced, weighed and homogenized for 30 sec in 20 mM phosphate buffer (pH 7.4). After centrifugation (20 min, 6000×g, 4° C.) the supernatant was decanted and the pellet resuspended in 50 mM phosphate buffer (pH 6.0) containing 0.5% hexadecyltrimethylammonium bromide. After three freeze/thaw cycles, the pellet was centrifuged (15 min, 20000×g, 4° C.) and 100 μl aliquots were added to 2.9 ml of assay buffer (50 mM phosphate buffer, 0.167 mg/ml o-dianiside, 0.05% H2 O2, pH 6.0). Absorbance at 460 nm was measured at 15 min. Results shown in Table IV were calculated as absorbance units/g dry weight.

For test [6], the system named is polymorphonuclear neutrophils. The test can be described thus: Adherence of PMN to serum coated wells, PAF. It counts as cell-based. To be noted: Homo sapiens, Polymorphonuclear neutrophil, 10 min, PAF 1 μM, read-out: IC50 to inhibit adhesion, PAF serum.
Description: as §1, §4

Test [7] relates to polymorphonuclear neutrophils. The test can be described thus: Adherence of PMN to serum coated wells, TNF-α. In kind it is cell-based. As to conditions: Homo sapiens, Polymorphonuclear neutrophil, 20 min, TNF-α 3 nM, read-out: IC50 to inhibit adhesion, TNF-α serum.
Description: as §1, §4

Structures are written as SMILES.

For the molecule `O=C(O)c1ccc(CCc2ccccc2-c2ccccc2)cc1` [NPC 18731, 4-[2-(biphenyl)ethyl]benzoic acid], the IC50 is 8.7 µM in test [1]; 28 µM in test [2]; 19.9 µM in test [3]; 6.5 µM in test [6]; 6.4 µM in test [7]. The figures for the ED50 in test [4] and in test [5] were 4 mg/kg and 0.1 mg/kg, respectively. For the same molecule, the “% Inhibition of neutrophil accumulation” value in test [4] (3 mg/kg) was determined as 22%; in test [4] (10 mg/kg), 44%; in test [4] (30 mg/kg) it was 59%; in test [4] (60 mg/kg), 59%. Besides, in test [5], the “Reverse Passive Arthus % Inhibition” value is on record as 40%.

As to `O=C(O)c1ccc(/C=C/c2ccccc2-c2ccc3ccccc3c2)cc1` [NPC 18812, 4-{2-[2-(2-naphthyl)phenyl]-(E)-ethenyl}benzoic acid], the IC50 in test [2] was found to be 14.5 µM; in test [3] it was 7.6 µM; in test [6], 1.17 µM; in test [7] it was 3.6 µM. Besides, the ED50 in test [4] is 7 mg/kg; in test [5], 0.5 mg/kg. The “% Inhibition of neutrophil accumulation” value in test [4] (3 mg/kg) is 12%; in test [4] (10 mg/kg), 50%; in test [4] (30 mg/kg), 71%; in test [4] (60 mg/kg), 94%. Moreover, in test [5], the “Reverse Passive Arthus % Inhibition” value was 29%.

For the molecule `O=C(O)c1ccc(/C=C/c2ccccc2-c2cc3ccccc3o2)cc1` [NPC 18915, 4-{2-[2-(2-benzofuranyl)phenyl]-(E)-ethenyl} benzoic acid], the IC50 in test [6] is 0.64 µM.
